{"source": "ChEMBL document CHEMBL5316327", "about": "“Design and Synthesis of Orally Active Quinolyl Pyrazinamides as Sigma 2 Receptor Ligands for the Treatment of Pancreatic Cancer” (J Med Chem, 2023)", "key": {"[1]": {"molecular_target": "Muscarinic acetylcholine receptor M2 (Homo sapiens, UniProt P08172)", "experiment": "Binding affinity to M2 receptor (unknown origin) assessed as inhibition constant"}, "[2]": {"molecular_target": "Histamine H3 receptor (Homo sapiens, UniProt Q9Y5N1)", "experiment": "Binding affinity to histamine H3 receptor (unknown origin) assessed as inhibition constant"}, "[3]": {"molecular_target": "D(3) dopamine receptor (Homo sapiens, UniProt P35462)", "sequence (P35462 whole entry)": "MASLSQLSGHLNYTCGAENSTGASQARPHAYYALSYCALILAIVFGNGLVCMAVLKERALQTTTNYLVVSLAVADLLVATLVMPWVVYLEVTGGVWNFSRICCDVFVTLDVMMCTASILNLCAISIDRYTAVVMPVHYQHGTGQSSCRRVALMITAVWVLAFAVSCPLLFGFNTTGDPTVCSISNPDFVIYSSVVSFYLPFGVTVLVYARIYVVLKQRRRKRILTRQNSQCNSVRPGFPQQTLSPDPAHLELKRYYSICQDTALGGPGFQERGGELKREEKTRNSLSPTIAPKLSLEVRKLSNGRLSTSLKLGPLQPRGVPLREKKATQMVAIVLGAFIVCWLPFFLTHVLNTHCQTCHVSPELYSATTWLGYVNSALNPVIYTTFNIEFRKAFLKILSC", "experiment": "Binding affinity to dopamine D3 receptor (unknown origin) assessed as inhibition constant"}, "[4]": {"molecular_target": "5-hydroxytryptamine receptor 1D (Homo sapiens, UniProt P28221)", "sequence (P28221 whole entry)": "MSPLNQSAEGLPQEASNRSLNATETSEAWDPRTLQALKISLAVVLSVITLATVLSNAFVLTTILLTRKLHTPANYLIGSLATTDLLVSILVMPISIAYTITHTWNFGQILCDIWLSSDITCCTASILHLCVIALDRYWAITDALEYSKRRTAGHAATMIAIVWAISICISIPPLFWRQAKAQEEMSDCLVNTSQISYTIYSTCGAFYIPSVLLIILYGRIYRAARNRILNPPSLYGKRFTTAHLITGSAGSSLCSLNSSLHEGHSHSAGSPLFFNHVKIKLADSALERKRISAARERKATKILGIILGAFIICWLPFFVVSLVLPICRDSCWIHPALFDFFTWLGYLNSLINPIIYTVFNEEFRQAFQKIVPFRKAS", "experiment": "Binding affinity to 5-HT1D receptor (unknown origin) assessed as inhibition constant"}, "[5]": {"molecular_target": "Kappa-type opioid receptor (Homo sapiens, UniProt P41145)", "sequence (P41145 whole entry)": "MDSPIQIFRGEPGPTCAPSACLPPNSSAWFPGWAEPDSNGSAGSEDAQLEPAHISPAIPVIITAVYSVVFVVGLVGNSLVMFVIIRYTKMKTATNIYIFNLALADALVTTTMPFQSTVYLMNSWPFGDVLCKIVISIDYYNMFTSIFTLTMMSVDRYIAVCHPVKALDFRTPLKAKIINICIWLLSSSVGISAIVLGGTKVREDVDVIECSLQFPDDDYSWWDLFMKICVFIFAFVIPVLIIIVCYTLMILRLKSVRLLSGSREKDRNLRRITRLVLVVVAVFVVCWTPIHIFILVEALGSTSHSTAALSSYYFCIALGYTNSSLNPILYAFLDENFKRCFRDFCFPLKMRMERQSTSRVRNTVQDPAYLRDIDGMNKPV", "experiment": "Binding affinity to KOR receptor (unknown origin) assessed as inhibition constant"}, "[6]": {"molecular_target": "5-hydroxytryptamine receptor 2B (Homo sapiens, UniProt P41595)", "experiment": "Binding affinity to 5-HT2B receptor (unknown origin) assessed as inhibition constant"}, "[7]": {"molecular_target": "Alpha-2A adrenergic receptor (Homo sapiens, UniProt P08913)", "sequence (P08913 whole entry)": "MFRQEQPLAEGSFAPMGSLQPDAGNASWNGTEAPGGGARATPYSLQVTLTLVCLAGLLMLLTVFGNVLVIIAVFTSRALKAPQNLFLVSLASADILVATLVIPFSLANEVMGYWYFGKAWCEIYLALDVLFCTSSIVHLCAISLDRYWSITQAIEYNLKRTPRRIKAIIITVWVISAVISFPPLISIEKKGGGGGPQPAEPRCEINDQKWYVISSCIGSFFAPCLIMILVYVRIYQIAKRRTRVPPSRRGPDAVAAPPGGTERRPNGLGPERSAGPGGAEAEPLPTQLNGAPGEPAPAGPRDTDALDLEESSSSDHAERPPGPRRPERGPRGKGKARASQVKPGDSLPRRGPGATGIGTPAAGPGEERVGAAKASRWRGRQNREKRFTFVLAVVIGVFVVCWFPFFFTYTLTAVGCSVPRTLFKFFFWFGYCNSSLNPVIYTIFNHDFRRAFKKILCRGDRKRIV", "experiment": "Binding affinity to alpha2A receptor (unknown origin) assessed as inhibition constant"}, "[8]": {"molecular_target": "Muscarinic acetylcholine receptor M4 (Homo sapiens, UniProt P08173)", "sequence (P08173 whole entry)": "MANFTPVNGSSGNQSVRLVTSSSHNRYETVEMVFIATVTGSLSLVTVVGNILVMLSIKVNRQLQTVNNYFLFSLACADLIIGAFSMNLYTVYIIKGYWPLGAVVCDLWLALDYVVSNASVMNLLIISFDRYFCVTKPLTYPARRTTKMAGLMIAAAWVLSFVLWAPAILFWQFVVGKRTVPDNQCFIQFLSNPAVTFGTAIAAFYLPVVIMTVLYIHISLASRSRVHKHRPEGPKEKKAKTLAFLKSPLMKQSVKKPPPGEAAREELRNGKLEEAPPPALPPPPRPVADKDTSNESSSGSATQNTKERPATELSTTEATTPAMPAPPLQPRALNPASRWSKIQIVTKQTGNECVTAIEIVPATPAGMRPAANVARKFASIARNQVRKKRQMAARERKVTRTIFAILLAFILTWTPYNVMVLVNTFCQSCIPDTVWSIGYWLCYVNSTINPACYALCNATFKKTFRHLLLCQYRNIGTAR", "experiment": "Binding affinity to M4 receptor (unknown origin) assessed as inhibition constant"}, "[9]": {"molecular_target": "Alpha-2B adrenergic receptor (Homo sapiens, UniProt P18089)", "sequence (P18089 whole entry)": "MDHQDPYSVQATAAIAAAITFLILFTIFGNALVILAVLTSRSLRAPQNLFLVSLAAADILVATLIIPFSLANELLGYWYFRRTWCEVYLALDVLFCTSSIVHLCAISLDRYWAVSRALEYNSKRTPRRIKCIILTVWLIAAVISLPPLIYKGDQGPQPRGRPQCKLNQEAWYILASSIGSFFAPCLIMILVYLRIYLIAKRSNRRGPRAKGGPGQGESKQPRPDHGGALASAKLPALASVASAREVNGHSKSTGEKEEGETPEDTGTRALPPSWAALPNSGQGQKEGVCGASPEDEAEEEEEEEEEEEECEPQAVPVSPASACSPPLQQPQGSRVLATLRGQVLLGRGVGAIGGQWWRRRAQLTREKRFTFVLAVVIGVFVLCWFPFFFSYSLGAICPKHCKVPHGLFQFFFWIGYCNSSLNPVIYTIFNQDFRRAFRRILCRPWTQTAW", "experiment": "Binding affinity to alpha2B receptor (unknown origin) assessed as inhibition constant"}, "[10]": {"experiment": "Metabolic stability in mouse liver microsomes assessed as half life at 10 uM measured upto 60 mins in presence of NADPH by LC-MS/MS analysis", "assay_type": "ADME, Microsome", "details": "1 h"}, "[11]": {"molecular_target": "Muscarinic acetylcholine receptor M1 (Homo sapiens, UniProt P11229)", "sequence (P11229 whole entry)": "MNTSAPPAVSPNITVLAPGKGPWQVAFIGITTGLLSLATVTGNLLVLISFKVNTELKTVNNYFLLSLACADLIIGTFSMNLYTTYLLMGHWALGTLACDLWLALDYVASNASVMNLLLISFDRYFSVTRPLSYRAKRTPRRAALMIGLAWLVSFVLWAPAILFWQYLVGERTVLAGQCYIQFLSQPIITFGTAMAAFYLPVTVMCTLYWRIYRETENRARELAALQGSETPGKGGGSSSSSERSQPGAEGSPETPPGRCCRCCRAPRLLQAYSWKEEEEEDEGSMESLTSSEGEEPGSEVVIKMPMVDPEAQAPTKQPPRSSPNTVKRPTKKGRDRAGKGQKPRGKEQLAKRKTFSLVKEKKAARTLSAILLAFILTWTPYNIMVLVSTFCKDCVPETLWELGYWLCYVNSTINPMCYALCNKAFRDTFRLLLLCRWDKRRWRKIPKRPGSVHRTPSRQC", "experiment": "Binding affinity to M1 receptor (unknown origin) assessed as inhibition constant"}, "[12]": {"molecular_target": "5-hydroxytryptamine receptor 1A (Homo sapiens, UniProt P08908)", "experiment": "Binding affinity to 5-HT1A receptor (unknown origin) assessed as inhibition constant"}, "[13]": {"molecular_target": "D(1A) dopamine receptor (Homo sapiens, UniProt P21728)", "experiment": "Binding affinity to dopamine D1 receptor (unknown origin) assessed as inhibition constant"}, "[14]": {"molecular_target": "Muscarinic acetylcholine receptor M3 (Homo sapiens, UniProt P20309)", "experiment": "Binding affinity to M3 receptor (unknown origin) assessed as inhibition constant"}, "[15]": {"molecular_target": "Sigma non-opioid intracellular receptor 1 (Homo sapiens, UniProt Q99720)", "sequence (Q99720 whole entry)": "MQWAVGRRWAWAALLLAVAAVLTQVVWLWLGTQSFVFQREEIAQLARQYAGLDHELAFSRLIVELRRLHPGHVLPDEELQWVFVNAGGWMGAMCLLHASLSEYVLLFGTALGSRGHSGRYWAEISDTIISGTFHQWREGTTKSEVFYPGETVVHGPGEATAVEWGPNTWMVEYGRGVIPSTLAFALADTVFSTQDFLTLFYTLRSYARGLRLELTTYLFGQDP", "experiment": "Displacement of [3H](+)-pentazocine from human sigma 1 receptor transfected in human HEK293T cells assessed as inhibition constant by radioligand competition binding assay", "assay_type": "cell-based"}, "[16]": {"molecular_target": "Sigma intracellular receptor 2 (Homo sapiens, UniProt Q5BJF2)", "sequence (Q5BJF2 whole entry)": "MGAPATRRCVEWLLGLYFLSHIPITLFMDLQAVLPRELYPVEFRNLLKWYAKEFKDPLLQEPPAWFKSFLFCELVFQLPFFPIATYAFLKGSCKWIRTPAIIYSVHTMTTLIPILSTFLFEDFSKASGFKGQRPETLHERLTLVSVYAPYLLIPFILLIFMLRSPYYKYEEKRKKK", "experiment": "Displacement of [3H][…]ditolylguanidine from human sigma 2 receptor transfected in human HEK293T cells assessed as inhibition constant by radioligand competition binding assay", "assay_type": "cell-based"}, "[17]": {"experiment": "Metabolic stability in human liver microsomes assessed as half life at 10 uM measured upto 60 mins in presence of NADPH by LC-MS/MS analysis", "assay_type": "ADME, Microsome", "details": "liver microsomes"}, "[18]": {"molecular_target": "D(1B) dopamine receptor (Homo sapiens, UniProt P21918)", "sequence (P21918 whole entry)": "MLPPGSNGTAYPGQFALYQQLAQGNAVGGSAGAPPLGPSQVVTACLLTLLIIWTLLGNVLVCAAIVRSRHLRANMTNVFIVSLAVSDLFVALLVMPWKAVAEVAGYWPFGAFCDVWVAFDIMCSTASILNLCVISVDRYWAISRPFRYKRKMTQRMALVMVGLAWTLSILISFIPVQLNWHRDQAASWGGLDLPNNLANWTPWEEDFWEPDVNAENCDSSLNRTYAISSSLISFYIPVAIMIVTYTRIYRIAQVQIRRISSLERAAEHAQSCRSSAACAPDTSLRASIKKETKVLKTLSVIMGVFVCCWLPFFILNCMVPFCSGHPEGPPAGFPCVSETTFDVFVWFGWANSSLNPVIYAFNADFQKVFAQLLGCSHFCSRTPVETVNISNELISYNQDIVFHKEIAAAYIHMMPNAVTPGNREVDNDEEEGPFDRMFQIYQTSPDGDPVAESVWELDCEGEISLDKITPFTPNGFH", "experiment": "Binding affinity to dopamine D5 receptor (unknown origin) assessed as inhibition constant"}, "[19]": {"molecular_target": "Histamine H2 receptor (Homo sapiens, UniProt P25021)", "sequence (P25021 whole entry)": "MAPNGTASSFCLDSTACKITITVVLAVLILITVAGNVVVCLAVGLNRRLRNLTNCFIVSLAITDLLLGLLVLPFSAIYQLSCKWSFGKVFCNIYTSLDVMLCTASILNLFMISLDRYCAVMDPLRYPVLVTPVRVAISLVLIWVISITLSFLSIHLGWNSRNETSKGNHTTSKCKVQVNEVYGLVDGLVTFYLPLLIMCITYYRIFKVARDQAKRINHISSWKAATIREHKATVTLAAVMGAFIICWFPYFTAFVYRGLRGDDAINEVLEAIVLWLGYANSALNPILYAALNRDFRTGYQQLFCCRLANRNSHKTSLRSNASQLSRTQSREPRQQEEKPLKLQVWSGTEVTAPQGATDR", "experiment": "Binding affinity to histamine H2 receptor (unknown origin) assessed as inhibition constant"}, "[20]": {"molecular_target": "Muscarinic acetylcholine receptor M5 (Homo sapiens, UniProt P08912)", "sequence (P08912 whole entry)": "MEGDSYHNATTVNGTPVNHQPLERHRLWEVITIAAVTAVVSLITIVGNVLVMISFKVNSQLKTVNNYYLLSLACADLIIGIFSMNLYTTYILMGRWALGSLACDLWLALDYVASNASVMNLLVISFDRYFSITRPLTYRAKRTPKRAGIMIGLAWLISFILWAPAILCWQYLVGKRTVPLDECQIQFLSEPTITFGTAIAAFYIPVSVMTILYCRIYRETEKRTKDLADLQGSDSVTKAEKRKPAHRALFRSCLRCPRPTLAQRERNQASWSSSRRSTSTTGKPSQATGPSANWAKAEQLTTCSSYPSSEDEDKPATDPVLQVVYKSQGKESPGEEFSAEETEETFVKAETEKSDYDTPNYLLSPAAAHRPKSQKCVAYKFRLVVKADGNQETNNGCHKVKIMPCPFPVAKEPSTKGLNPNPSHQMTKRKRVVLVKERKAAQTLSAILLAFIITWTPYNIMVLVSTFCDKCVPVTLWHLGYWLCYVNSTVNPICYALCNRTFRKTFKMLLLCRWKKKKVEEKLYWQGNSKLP", "experiment": "Binding affinity to M5 receptor (unknown origin) assessed as inhibition constant"}}, "data": [{"smiles": "CCN(CC)CCCC(C)Nc1cnc(C(=O)Nc2cc(F)cc3cccnc23)cn1", "note": "(stereo not given)", "values": [{"measurement": "Ki", "setting": "[1]", "result": 386, "unit": "nM"}, {"measurement": "Ki", "setting": "[2]", "result": 1200, "unit": "nM"}, {"measurement": "Ki", "setting": "[3]", "result": 726, "unit": "nM"}, {"measurement": "Ki", "setting": "[4]", "result": 99, "unit": "nM"}, {"measurement": "Ki", "setting": "[5]", "result": 713, "unit": "nM"}, {"measurement": "Ki", "setting": "[6]", "result": "> 10000", "unit": "nM"}, {"measurement": "Ki", "setting": "[7]", "result": 673, "unit": "nM"}, {"measurement": "Ki", "setting": "[8]", "result": 279, "unit": "nM"}, {"measurement": "Ki", "setting": "[9]", "result": 2010, "unit": "nM"}, {"measurement": "t1/2", "setting": "[10]", "result": 45.3, "unit": "min"}, {"measurement": "Ki", "setting": "[11]", "result": 717, "unit": "nM"}, {"measurement": "Ki", "setting": "[12]", "result": 743, "unit": "nM"}, {"measurement": "Ki", "setting": "[13]", "result": 5470, "unit": "nM"}, {"measurement": "Ki", "setting": "[14]", "result": 1350, "unit": "nM"}, {"measurement": "Ki", "setting": "[15]", "result": 165, "unit": "nM"}, {"measurement": "Ki", "setting": "[16]", "result": 10, "unit": "nM"}, {"measurement": "half-life at 10 µM", "setting": "[17]", "result": "> 60", "unit": "min"}, {"measurement": "Ki", "setting": "[18]", "result": 2830, "unit": "nM"}, {"measurement": "Ki", "setting": "[19]", "result": 750, "unit": "nM"}, {"measurement": "Ki", "setting": "[20]", "result": 373, "unit": "nM"}]}]}
